Where two headings read alike, the source gives them in different places.
Tests used:
[1] = biological target: T1, CB1 receptor (Homo sapiens, UniProt P21554); assay: DiscoveRx HitHunter cAMP XS+ assay in cAMP Hunter cell line, allosteric modulation of CP55,940 response; type: cell-based; details: for Emax: read-out: cAMP activity ECMax (%)
Procedure: Once it was established that the cells were healthy and growing normally, cells were passaged from flasks using cell dissociation reagent buffer and seeded into white walled clear bottom 384-well microplates for compound profiling. For profiling, cells were seeded at a density of 10000 cells per well in a total volume of 20 μL and were allowed to adhere and recover overnight prior to compound addition. Cells were treated the following day using the protocols shown below. cAMP modulation was determined using the DiscoveRx HitHunter cAMP XS+ assay.
Media was aspirated from cells and replaced with 10 μL 1:1 HBSS/Hepes: cAMP XS+ Ab reagent. Agonist (CP55,940) dose curves were performed to determine the EC20 value for the testing with the compounds of the present technology. 5 μL of 4× agonist was added to each well with an equal concentration of vehicle present. EC20 agonist concentration was determined directly from agonist dose curve.
(§1) For allosteric determination, cells were preincubated with compound followed by agonist challenge at the EC20 concentration of the agonist. 5 μL of 4× compound was added to cells and incubated at 37° C. for 30 minutes. 5 μL of 4× EC20 agonist was added to cells and incubated at 37° C. for 30 minutes.
Signal Detection: After appropriate compound incubation, assay signal was generated through incubation with 20 μL cAMP XS+ED/CL lysis cocktail for one hour followed by incubation with 20 μL cAMP XS+EA reagent for three hours at room temperature. Microplates were read following signal generation with a PerkinElmer Envision™ instrument for chemiluminescent signal detection.
(§2) Data Analysis: Dose curves were plotted using GraphPad Prism or Activity Base. The percentage activity is calculated using the following formula: % Activity=100%×(1−(mean RLU of test sample−mean RLU of MAX control)/(mean RLU of vehicle control [EC20 for PAM]−mean RLU of MAXcontrol).
(§3) Agonist (CP55,940) dose curves were performed for the CNR1 PathHunter and cAMP Hunter cell lines. […] The cAMP assay was performed in the presence of 20 μM forskolin (EC80).
(§4) In Vitro Evaluation: The in vitro evaluation of the covalent allosteric modulators was performed using as described previously.

[2] = biological target: T1, CB1 receptor; assay: β-arrestin recruitment in CNR1 PathHunter cell line, allosteric modulation of CP55,940 response; type: cell-based; details: for Emax: read-out: β-arrestin activity EMax (%)
Procedure: as §1, §2, §3, §4

[3] = system: rats; type: in vivo
Procedure: (§5) GAT358 was assessed in two different behavioral tests, the Taste Reactivity (TR) Test and the Light Dark Emergence (LDE) Test. The TR Test is used to assess the possibility of a drug inducing nausea in rats as measured by conditioned gaping to infusion of a 0.01% saccharin solution previously paired with drug administration.
GAT358 was dissolved in a mixture of 4% DMSO, 1% Tween80, 1% Cremophor and 94% Saline (for doses of 5, 10 and 20 mg/kg) and injected at a volume of 3 ml/kg. Assessed was the vehicle (“Veh”), 10 and 20 mg/kg doses of GAT358 in the conditioned gaping model of nausea where rats are infused for 2 min with novel 0.01% saccharin followed immediately by an injection of the appropriate drug dose [Vehicle (n=6), GAT358-10 (n=8) and GAT358-20 (n=8)]. Seventy two hours following conditioning the rats were infused for 2 min with 0.01% saccharin during the drug free TR Test while their orofacial responses were videotaped for subsequent scoring. Further assessed was the Veh, 5 and 10 mg/kg of GAT358 in the LDE test [Veh (n=6), GAT358-5 (n=8) and GAT358-10 (n=8)]. Group assignment was counterbalanced based upon previous drug experience. The rats were administered the appropriate drug dose 45 min prior to being placed in the enclosed dark chamber that allowed access to an open field area where the lighting was 100 lux. The activity of the rat while in the LDE test for 5 min was tracked by Ethovision (Noldus Information Technology) and subsequently the duration of time spent in the open field and activity (distance travelled (cm)/amount of time(sec)) was analyzed.
Results (all analyses were conducted using a one way ANOVA): […]

[4] = system: rats; assay: Light Dark Emergence (LDE) Test of anxiety; type: in vivo; details: 5 or 10 mg/kg, p>0.05
Procedure: as §5
GAT358 was dissolved in a mixture of 4% DMSO, 1% Tween80, 1% Cremophor and 94% Saline (for doses of 5, 10 and 20 mg/kg) and injected at a volume of 3 ml/kg. Assessed was the vehicle (“Veh”), 10 and 20 mg/kg doses of GAT358 in the conditioned gaping model of nausea where rats are infused for 2 min with novel 0.01% saccharin followed immediately by an injection of the appropriate drug dose [Vehicle (n=6), GAT358-10 (n=8) and GAT358-20 (n=8)]. Seventy two hours following conditioning the rats were infused for 2 min with 0.01% saccharin during the drug free TR Test while their orofacial responses were videotaped for subsequent scoring. Further assessed was the Veh, 5 and 10 mg/kg of GAT358 in the LDE test [Veh (n=6), GAT358-5 (n=8) and GAT358-10 (n=8)]. […] The activity of the rat while in the LDE test for 5 min was tracked by Ethovision (Noldus Information Technology) and subsequently the duration of time spent in the open field and activity (distance travelled (cm)/amount of time(sec)) was analyzed. […]

[5] = Table 1, preincubation with compound, then CP55,940 challenge, 20 μM forskolin
[6] = Table 1, preincubation with compound, then CP55,940 challenge, 20 μM forskolin, read-out: cAMP EC50
[7] = Table 1, CP55,940 as agonist, read-out: β-arrestin EC50
[8] = Table 2, covalent allosteric modulators, read-out: cAMP activity EC50 (nm)
[9] = Table 2, covalent allosteric modulators, read-out: β-arrestin activity EC50 (nm)
[10] = Table 2, covalent allosteric modulators

T1 sequence (P21554 whole entry): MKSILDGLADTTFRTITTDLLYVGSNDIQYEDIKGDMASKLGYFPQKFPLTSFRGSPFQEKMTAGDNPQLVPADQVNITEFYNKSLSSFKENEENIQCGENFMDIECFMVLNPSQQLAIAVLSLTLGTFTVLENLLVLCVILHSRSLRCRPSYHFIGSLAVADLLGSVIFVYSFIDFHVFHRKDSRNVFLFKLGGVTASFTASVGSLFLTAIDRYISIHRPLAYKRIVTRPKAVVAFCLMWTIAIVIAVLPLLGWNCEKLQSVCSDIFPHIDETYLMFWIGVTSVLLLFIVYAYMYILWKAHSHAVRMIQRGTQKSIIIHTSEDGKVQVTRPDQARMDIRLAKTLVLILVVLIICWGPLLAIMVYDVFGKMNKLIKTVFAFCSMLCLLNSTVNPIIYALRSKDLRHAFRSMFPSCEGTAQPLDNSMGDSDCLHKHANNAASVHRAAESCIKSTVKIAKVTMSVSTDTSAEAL

Row | Compound | cAMP % inhibition [1, 5] | EC50 [1, 6] | β-arrestin % inhibition ([2]; Table 1, CP55,940 as agonist) | EC50 [2, 7] | further results
1 | O=C(Nc1cccc(Cl)c1)Nc1cccc(-c2cccc(N3CCCC3)n2)c1 [Compound 10c, 1-(3-Chlorophenyl)-3-(3-(6-(pyrrolidin-1-yl)pyridin-2-yl)phenyl)urea] | 111% | 782 nM | 128% | 260 nM | –
2 | O=C(Nc1ccccc1)Nc1cccc(-c2cccc(N3CCCC3)n2)c1 [Compound 10q, 1-Phenyl-3-(3-(6-(pyrrolidin-1-yl)pyridin-2-yl)phenyl)urea] | – | 501 nM | 135% | 110 nM | –
3 | O=C(Nc1cccc(-c2cccc(N3CCCC3)n2)c1)Nc1cccc(C(F)(F)F)c1 [Compound 10f, 1-(3-(6-(Pyrrolidin-1-yl)pyridin-2-yl)phenyl)-3-(3-(trifluoromethyl)phenyl)urea] | 116% | 242 nM | 129% | 220 nM | –
4 | O=C(Nc1cccc(Oc2ccccc2)c1)Nc1cccc(-c2cccc(N3CCCC3)n2)c1 [Compound 10l, 1-(3-Phenoxyphenyl)-3-(3-(6-(pyrrolidin-1-yl)pyridin-2-yl)phenyl)urea] | 57% | 2240 nM | 117% | 86 nM | –
5 | O=C(NCCc1ccc(N2CCCCC2)cc1)c1[nH]c2ccc(Cl)cc2c1CCN=C=S [GAT209] | – | – | – | – | EC50 [1, 8]: > 10000 nM; Emax [1]: 0%; EC50 [2, 9]: 225 nM; Emax [2]: 104%
6 | O=C(Nc1cccc(-c2cccc(N3CCCC3)n2)c1)Nc1ccc(Cl)cc1CCCCO [Compound 24a, 1-(4-Chloro-2-(4-hydroxybutyl)phenyl)-3-(3-(6-(pyrrolidin-1-yl)pyridin-2-yl)phenyl)urea] | 82% | 1230 nM | 126% | 276 nM | –
7 | O=C(Nc1cccc(-c2cccc(N3CCCC3)n2)c1)Nc1ccc(Cl)c(CCCCOC2CCCCO2)c1 (stereo not shown) [Compound 23b, 1-(4-Chloro-3-(4-((tetrahydro-2H-pyran-2-yl)oxy)butyl)phenyl)-3-(3-(6-(pyrrolidin-1-yl)pyridin-2-yl)phenyl)urea] | 55% | 354 nM | 121% | 771 nM | –
8 | Cc1cc(Cl)ccc1OC(=O)Nc1cccc(-c2cccc(N3CCCC3)n2)c1 [Compound 13c, 4-Chloro-2-methylphenyl (3-(6-(pyrrolidin-1-yl)pyridin-2-yl)phenyl)carbamate] | 24% | 3050 nM | 39% | 3070 nM | –
9 | O=C(Nc1ccc(C(=O)c2ccccc2)cc1)Nc1cccc(-c2cccc(N3CCCC3)n2)c1 [GAT300] | – | – | – | – | EC50 [1, 8]: 169 nM; Emax [1, 10]: 99.6%; EC50 [2, 9]: 28.4 nM; Emax [2, 10]: 106%
10 | O=C(Nc1cccc(-c2cccc(N3CCCC3)n2)c1)Oc1ccc(Cl)cc1 [Compound 13b, 4-Chlorophenyl (3-(6-(pyrrolidin-1-yl)pyridin-2-yl)phenyl)carbamate] | 3.5% | > 10000 nM | 24% | 5370 nM | –
11 | O=C(Nc1ccc(I)cc1)Nc1cccc(-c2cccc(N3CCCC3)n2)c1 [GAT205] | – | – | – | – | EC50 [1, 8]: 253 nM; Emax [1, 10]: 102%; EC50 [2, 9]: 11.5 nM; Emax [2, 10]: 105%
12 | O=C(Nc1cccc(-c2cccc(N3CCCC3)n2)c1)Nc1ccc(Cl)cc1I [Compound 19a, 1-(4-Chloro-2-iodophenyl)-3-(3-(6-(pyrrolidin-1-yl)pyridin-2-yl)phenyl)urea] | 53% | 1270 nM | 118% | 1200 nM | –
13 | O=c1c(Nc2ccc(Cl)cc2)c(Nc2cccc(-c3cccc(N4CCCC4)n3)c2)c1=O [Compound 38, 3-((4-Chlorophenyl)amino)-4-((3-(6-(pyrrolidin-1-yl)pyridin-2-yl)phenyl)amino)cyclobut-3-ene-1,2-dione] | 16% | > 10000 nM | 107% | 111 nM | total activity of rats during the drug-free test with saccharin vs vehicle ([3]; 10 mg/kg, Bonferroni p=0.006): significantly lower than the rats in the vehicle group; total activity of rats during the drug-free test with saccharin vs vehicle ([3]; 20 mg/kg, Bonferroni p=0.012): significantly lower than the rats in the vehicle group; conditioned gaping responses vs vehicle ([3]; 10 and 20 mg/kg, drug-free TR test 72 h after conditioning, 2 min saccharin infusion, p>0.05): did not result in the expression of conditioned gaping or total aversive responses that differed significantly from the vehicle group; total aversive responses (gaping, chin rubs and paw treads) vs vehicle ([3]; 10 and 20 mg/kg, drug-free TR test 72 h after conditioning, p>0.05): did not result in the expression of conditioned gaping or total aversive responses that differed significantly from the vehicle group; conditional ingestive responding to saccharin infusion ([3]; 10 and 20 mg/kg, drug-free TR test, p>0.05): did not alter conditional ingestive responding to saccharin infusion; time spent in the open field ([4]; 45 min before 5 min LDE test): did not significantly alter the time spent in the open field; activity of rats during the 5 min in the LDE test ([4]; 45 min before test): did not significantly alter
14 | O=C(Nc1ccc(Cl)cc1)Nc1cccc(-c2cccc(N3CCNCC3)n2)c1 [Compound 67b, 1-(4-Chlorophenyl)-3-(3-(6-(piperazin-1-yl)pyridin-2-yl)phenyl)urea] | 113% | 274 nM | 110% | 25 nM | –
15 | O=C(Nc1ccc(Oc2ccccc2)cc1)Nc1cccc(-c2cccc(N3CCCC3)n2)c1 [Compound 10k, 1-(4-Phenoxyphenyl)-3-(3-(6-(pyrrolidin-1-yl)pyridin-2-yl)phenyl)urea] | 91% | 750 nM | 123% | 115 nM | –
16 | Cc1cccc(NC(=O)Nc2cccc(-c3cccc(N4CCCC4)n3)c2)c1 [Compound 10o, 1-(3-(6-(Pyrrolidin-1-yl)pyridin-2-yl)phenyl)-3-(m-tolyl)urea] | 65% | 483 nM | 125% | 734 nM | –
